# Literature values, collected in patent US10493069B2, “Methods of treating behavioral syndromes using pipradrol” (Ovid Therapeutics Inc., priority 2016, dated 2019).
# Test system: individuals with depression
# Settings: study on 111 individuals with depression; Rickels et al., J Clin Pharmacol 14, 127-133 (1974)
smiles,measurement,value
OC(c1ccccc1)(c1ccccc1)C1CCCCN1 (stereo not shown) [pipradrol],efficacy compared with placebo in depression,not superior to placebo
